# From ChEMBL document CHEMBL1201862, “PubChem BioAssay data set” (2004)
# The source made the active and inactive calls.
# Experiments:
# [1] = HEK-293T viability loss after treatment – luminescence, T-cell screen hits, cytotoxicity control for TCR NF-kB inhibitor project, dose response (AID 489026); format: functional, cell-based;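 note: cells exposed to compound about 14 hours before the viability readout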
# Exodeoxyribonuclease V = Exodeoxyribonuclease V (Escherichia coli (strain K12), UniProt P04993+P07648+P08394); experiment: RecBCD inhibition via phage-restricted bacterial growth – absorbance, V66 E. coli, mutant T4 phage, counter-screen for AddAB inhibitor project, dose response (AID 492957); format: functional, cell-based, Escherichia coli str. K-12 substr. MG1655
# INS1 = experiment: INS-1E survival protection against cytokine death – cell-based, luminescence, retest, dose response (AID 449756); format: functional; details: Rattus norvegicus;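 note: cell death triggered by IL-1 beta plus TNF-alpha plus IFN-gamma mixture; protective hits raise ATP signal compared with cytokine alone wells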
# Protein Wnt-3a = Protein Wnt-3a (Mus musculus, UniProt P27467); experiment: antagonism of Wnt3a pathway luciferase reporter – Wnt-LIGHT cells, luminescence, selectivity assay for Gli-SUFU antagonist project, dose response (AID 651570); format: functional; details: read-out: IC50_Mean;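 note: Wnt-LIGHT reporter cells stimulated with conditioned medium from Wnt3a-producing cells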
# [2] = Counterscreen for AddAB inhibitors: absorbance-based bacterial cell-based high throughput dose response assay for inhibitors of bacterial viability. [Related pubchem assays (depositor defined):AID435030, AID449728, AID449731, AID488942, AID488955, AID488956]; format: functional
# [3] = non-specific 3'UTR reporter inhibition in Clone20-Shn3RL – cell-based, Renilla luciferase, cherry-picked, counter-screen for Shn3 inhibitor project, dose response (AID 624133); format: functional
# [4] = luciferase reporter signal suppression in cells – H4 neuroglioma cells, luminescence, dose response (AID 1990); format: functional, cell-based
# Vero = experiment: inhibition of WNV-induced cytopathic effect – cell-based, CPE readout (AID 1621); format: functional; details: Chlorocebus sabaeus
# [5] = alpha-synuclein stem-loop luciferase translation blockers – H4 neuroglioma cells, luminescence, confirmation (AID 1988); format: functional, cell-based
# [6] = biological target: Photoreceptor-specific nuclear receptor (Homo sapiens, UniProt Q9Y5X4); format: functional, cell-based;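 note: CHO-S cells with Gal4-NCOR and VP16-NR2E3 two-hybrid luciferase reporter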
# [7] = reduction of Shn3 3'UTR-driven luciferase in osteoblasts – cell-based, Clone20 osteoblasts, firefly luciferase, cherry-picked, dose response (AID 624132); format: functional;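 note: firefly luciferase luminescence from reporter carrying the Shn3 3'UTR in osteoblasts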
# [8] = loss of viability in HepG2 cells – cell-based, CellTiter-Glo, cherry-picked, cytotoxicity control for Shn3 inhibitor project, dose response (AID 624134); format: functional
# [9] = Luminescence Cell-Based Dose Response HTS to Identify Inhibitors of 5'UTR Stem-Loop Driven Prion Protein mRNA Translation in H4 Neuroglioblastoma Cells. [Related pubchem assays: 1827 (Project Summary), 1813 (Primary HTS)]; format: functional
# [10] = Luminescence Cell-Based Dose Response HTS to Identify Activators of Luciferase Translation or Activity in H4 […] Cells. [Related pubchem assays: 1829 (Project Summary), 1814 (Primary HTS)]; format: functional
# [11] = Luminescence Cell-Based Dose Confirmation HTS to Identify Activators of 5'UTR Stem-Loop Driven Alpha-Synuclein mRNA Translation in H4 Neuroglioblastoma Cells. [Related pubchem assays: 1829 (Project Summary), 1814 (Primary HTS)]; format: functional
# [12] = biological target: Multidrug resistance protein CDR2 (Candida albicans (strain SC5314 / ATCC MYA-2876) (Yeast), UniProt P78595); experiment: blockers of Nile Red efflux by Candida CDR2 – S. cerevisiae AD1-8u, singleplex, Cherry Pick2 set, dose response (AID 623994); format: functional; details: read-out: EC50_MICROM
# H4 = experiment: Luminescence Cell-Based Dose Response HTS to Identify Activators of 5'UTR Stem-Loop Driven Prion Protein mRNA Translation in H4 Neuroglioblastoma Cells. [Related pubchem assays: 1829 (Project Summary), 1814 (Primary HTS)]; format: functional; details: Homo sapiens
# [13] = biological target: Mitochondrial peptide methionine sulfoxide reductase (Bos taurus, UniProt P54149); format: functional;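 note: absorbance read-out, biochemical high-throughput dose-response screen for MsrA inhibitors, confirmatory; recombinant bovine MsrA coupled to E. coli TrxB with NADPH and selenocystamine; potency is for inhibitors of MsrA activity on DMSO substrate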
# [14] = biological target: T1, Replicative DNA helicase DnaB (Mycobacterium tuberculosis, UniProt P9WMR3); experiment: DnaB intein splicing inhibitors, dose response, biochemical, cell-free fluorescence (AID 449749); format: functional
# T1 sequence (P9WMR3 whole entry): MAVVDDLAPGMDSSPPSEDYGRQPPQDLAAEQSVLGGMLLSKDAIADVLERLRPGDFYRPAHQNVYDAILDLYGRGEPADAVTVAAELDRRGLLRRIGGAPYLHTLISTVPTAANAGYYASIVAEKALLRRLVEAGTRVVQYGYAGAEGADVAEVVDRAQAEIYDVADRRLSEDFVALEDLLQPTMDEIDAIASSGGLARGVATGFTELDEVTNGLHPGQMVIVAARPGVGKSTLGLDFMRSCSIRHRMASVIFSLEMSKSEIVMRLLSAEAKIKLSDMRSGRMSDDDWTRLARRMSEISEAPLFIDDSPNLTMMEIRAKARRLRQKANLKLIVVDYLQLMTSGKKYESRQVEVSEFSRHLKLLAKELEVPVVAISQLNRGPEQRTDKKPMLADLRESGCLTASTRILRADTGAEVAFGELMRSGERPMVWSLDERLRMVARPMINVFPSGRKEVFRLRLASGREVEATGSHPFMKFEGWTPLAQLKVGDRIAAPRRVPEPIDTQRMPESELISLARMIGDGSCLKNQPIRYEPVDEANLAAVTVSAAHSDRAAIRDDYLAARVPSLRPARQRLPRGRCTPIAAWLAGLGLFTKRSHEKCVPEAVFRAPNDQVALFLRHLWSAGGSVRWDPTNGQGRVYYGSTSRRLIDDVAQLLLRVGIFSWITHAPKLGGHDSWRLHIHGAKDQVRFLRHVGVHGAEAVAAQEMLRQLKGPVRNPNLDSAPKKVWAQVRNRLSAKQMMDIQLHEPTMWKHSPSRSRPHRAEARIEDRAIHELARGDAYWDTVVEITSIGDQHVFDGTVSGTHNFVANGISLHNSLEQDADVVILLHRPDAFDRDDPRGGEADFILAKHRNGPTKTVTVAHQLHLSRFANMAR
# Protein RecA = biological target: T2, Protein RecA (Mycobacterium tuberculosis, UniProt P9WHJ3); experiment: Fluorescence Cell-Free Homogeneous Dose Retest to Identify Inhibitors of RecA-Intein Splicing Activity. [Related pubchem assays (depositor defined):AID2097, AID2223, AID489010, AID492950]; format: functional
# T2 sequence (P9WHJ3 whole entry): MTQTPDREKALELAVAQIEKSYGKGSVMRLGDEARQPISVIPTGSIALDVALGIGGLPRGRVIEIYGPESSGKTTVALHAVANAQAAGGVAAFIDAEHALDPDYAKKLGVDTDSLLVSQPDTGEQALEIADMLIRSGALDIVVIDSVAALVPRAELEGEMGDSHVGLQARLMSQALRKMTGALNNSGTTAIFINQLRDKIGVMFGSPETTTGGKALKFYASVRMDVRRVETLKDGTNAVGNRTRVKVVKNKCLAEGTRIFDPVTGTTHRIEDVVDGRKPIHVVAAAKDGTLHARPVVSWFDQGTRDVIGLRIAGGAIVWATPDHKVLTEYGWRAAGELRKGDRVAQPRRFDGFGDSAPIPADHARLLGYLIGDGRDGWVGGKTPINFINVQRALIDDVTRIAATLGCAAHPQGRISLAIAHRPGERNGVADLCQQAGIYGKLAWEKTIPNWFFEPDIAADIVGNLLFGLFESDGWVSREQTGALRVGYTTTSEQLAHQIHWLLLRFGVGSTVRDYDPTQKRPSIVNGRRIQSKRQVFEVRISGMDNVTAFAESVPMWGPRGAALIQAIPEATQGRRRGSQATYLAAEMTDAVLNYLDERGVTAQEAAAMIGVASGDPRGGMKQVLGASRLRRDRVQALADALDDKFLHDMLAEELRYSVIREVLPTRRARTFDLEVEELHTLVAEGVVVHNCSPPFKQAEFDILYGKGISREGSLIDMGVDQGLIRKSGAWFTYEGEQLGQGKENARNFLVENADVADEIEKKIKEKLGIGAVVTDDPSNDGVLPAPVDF
# Chain of Photoreceptor-specific nuclear receptor (Q9Y5X4 whole entry, the tested form may be a part): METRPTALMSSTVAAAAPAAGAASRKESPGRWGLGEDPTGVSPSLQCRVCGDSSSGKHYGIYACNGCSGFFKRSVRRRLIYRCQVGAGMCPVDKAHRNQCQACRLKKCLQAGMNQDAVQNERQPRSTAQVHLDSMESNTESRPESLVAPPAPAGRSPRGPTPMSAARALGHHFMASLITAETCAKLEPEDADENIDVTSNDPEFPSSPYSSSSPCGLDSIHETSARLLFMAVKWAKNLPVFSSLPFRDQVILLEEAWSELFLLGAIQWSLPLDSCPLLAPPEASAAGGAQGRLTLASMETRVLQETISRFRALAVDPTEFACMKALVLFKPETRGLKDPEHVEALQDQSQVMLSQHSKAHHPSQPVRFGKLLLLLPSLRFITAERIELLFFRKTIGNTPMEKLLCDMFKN
# Chain of Exodeoxyribonuclease V (P04993 whole entry): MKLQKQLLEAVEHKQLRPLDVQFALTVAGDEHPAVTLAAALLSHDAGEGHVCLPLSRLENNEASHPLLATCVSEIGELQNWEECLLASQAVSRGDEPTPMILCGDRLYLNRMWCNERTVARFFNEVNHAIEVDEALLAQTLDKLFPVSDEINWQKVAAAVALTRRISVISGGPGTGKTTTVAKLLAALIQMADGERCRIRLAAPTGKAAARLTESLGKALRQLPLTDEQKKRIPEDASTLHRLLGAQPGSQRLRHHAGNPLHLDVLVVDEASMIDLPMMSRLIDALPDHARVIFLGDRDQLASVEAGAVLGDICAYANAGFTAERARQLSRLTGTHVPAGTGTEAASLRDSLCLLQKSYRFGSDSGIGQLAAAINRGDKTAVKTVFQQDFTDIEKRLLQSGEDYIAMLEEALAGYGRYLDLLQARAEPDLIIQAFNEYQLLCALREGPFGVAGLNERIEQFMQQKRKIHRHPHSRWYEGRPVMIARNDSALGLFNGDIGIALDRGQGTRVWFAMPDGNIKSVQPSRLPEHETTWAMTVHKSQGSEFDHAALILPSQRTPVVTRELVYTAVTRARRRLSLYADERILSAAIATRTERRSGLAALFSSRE
# Chain of Exodeoxyribonuclease V (P07648 whole entry): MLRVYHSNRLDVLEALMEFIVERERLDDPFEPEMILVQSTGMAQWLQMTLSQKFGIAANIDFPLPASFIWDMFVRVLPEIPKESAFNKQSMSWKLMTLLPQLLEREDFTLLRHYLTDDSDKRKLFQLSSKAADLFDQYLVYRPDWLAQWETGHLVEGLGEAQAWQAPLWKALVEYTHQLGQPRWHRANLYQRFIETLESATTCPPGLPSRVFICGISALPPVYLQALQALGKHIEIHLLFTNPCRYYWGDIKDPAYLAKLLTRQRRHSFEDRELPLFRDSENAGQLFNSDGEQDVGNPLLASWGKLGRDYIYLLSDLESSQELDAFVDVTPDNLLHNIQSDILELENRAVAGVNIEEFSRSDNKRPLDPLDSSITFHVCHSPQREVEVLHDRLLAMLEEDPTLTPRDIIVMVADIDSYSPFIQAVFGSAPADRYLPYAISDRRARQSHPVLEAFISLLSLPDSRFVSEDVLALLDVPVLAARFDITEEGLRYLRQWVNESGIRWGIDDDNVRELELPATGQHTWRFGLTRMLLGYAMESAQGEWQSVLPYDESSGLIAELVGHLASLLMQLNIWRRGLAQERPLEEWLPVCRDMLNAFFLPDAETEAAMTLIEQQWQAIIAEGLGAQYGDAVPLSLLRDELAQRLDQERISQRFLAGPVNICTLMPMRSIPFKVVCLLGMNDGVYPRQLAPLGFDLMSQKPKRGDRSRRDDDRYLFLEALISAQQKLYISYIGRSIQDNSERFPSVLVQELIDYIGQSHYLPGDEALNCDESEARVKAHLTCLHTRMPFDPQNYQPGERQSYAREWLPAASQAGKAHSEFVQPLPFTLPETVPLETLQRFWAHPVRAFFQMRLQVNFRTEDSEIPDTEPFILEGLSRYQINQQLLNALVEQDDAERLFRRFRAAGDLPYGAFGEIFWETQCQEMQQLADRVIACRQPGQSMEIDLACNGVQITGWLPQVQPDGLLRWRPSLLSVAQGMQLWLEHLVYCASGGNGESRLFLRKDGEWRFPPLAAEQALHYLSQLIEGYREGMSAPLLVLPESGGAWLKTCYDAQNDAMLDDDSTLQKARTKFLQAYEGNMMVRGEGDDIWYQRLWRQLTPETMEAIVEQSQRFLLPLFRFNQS
# Chain of Exodeoxyribonuclease V (P08394 whole entry): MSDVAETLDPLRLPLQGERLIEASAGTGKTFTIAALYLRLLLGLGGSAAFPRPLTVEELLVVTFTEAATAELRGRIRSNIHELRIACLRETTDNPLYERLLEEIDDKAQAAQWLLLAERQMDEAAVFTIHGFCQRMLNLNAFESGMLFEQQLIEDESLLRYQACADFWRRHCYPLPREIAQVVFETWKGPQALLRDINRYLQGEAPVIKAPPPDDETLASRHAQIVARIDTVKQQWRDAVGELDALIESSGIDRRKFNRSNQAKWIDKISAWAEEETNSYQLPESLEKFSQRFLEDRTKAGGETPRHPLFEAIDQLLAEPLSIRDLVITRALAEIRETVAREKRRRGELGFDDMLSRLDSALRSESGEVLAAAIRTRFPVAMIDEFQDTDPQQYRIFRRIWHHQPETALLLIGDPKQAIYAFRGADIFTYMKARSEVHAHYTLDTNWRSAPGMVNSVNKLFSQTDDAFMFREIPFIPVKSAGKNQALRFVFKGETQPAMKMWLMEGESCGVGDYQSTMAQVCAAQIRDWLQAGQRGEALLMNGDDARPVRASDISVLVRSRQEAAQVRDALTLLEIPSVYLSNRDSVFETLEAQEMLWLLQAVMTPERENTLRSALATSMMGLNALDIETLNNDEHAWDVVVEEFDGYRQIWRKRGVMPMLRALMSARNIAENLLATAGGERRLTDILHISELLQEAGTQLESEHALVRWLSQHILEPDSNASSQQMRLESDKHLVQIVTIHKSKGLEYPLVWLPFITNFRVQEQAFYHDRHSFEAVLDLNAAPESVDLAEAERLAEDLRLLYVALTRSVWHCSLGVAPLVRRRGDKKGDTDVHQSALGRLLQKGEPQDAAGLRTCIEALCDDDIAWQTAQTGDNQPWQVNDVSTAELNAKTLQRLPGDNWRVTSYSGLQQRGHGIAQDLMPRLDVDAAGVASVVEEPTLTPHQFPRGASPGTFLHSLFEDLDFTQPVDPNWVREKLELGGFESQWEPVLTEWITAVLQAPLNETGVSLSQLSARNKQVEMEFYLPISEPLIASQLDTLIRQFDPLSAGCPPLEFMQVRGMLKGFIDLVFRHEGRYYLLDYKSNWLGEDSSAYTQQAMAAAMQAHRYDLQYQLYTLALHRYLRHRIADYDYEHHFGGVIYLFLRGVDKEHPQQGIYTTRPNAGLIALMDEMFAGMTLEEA
# Chain of Multidrug resistance protein CDR2 (P78595 whole entry): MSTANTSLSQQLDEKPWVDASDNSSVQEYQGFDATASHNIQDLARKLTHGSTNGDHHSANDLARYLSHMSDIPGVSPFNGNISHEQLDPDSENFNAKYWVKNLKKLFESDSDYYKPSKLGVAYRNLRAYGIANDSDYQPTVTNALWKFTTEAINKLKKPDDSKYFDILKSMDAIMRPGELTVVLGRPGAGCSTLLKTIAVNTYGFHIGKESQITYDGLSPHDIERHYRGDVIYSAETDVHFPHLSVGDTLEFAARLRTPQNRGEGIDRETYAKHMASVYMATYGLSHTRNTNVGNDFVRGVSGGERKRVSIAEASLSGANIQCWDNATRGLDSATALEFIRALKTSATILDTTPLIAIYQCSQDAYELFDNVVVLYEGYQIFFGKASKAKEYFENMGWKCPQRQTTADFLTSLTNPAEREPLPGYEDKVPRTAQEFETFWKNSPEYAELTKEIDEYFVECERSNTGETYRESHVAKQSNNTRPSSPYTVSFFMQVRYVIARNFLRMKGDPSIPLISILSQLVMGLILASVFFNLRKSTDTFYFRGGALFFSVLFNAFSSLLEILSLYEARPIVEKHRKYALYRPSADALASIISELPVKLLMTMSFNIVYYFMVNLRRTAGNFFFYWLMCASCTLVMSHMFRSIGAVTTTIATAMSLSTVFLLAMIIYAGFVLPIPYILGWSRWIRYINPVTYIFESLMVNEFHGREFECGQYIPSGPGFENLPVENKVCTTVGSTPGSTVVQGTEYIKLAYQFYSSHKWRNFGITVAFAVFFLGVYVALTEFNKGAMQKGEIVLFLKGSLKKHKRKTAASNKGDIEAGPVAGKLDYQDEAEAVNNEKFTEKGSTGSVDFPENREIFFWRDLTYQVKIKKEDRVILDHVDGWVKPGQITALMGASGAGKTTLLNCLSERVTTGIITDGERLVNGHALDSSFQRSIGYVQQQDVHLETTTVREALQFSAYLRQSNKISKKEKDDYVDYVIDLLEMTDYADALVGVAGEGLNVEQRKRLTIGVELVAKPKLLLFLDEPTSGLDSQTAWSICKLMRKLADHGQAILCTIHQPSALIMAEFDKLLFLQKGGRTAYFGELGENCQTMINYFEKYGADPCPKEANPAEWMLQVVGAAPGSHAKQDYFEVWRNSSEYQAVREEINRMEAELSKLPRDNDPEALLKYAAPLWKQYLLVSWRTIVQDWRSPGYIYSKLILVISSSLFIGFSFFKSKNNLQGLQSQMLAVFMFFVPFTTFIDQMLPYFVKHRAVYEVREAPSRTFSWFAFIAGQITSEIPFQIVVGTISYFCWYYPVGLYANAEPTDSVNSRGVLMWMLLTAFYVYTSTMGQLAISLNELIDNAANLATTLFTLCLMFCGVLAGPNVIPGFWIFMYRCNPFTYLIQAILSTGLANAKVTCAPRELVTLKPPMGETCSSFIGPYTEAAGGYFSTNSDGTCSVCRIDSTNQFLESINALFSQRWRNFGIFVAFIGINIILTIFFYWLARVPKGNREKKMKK
# Chain of Mitochondrial peptide methionine sulfoxide reductase (P54149 whole entry): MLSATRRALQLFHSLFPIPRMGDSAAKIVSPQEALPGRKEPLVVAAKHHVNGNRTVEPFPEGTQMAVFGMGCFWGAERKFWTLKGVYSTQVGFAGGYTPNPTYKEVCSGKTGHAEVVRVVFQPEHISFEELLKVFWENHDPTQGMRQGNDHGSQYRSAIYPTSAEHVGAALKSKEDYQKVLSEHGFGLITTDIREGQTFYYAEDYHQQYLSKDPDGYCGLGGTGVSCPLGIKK
structure (smiles),measurement,setting,value
CCOC(=O)c1ccc(NC(=O)Cn2cnc3cc(C)c(C)cc32)cc1,IC50,[1],> 80 µM (inactive)
same,IC50,Exodeoxyribonuclease V,> 119 µM (inactive)
same,AC50,INS1,4.42 µM (active)
same,IC50,Protein Wnt-3a,0.931 µM (active)
same,IC50,[2],> 119 µM (inactive)
COc1cc2c(OC(C)=O)c3c(c(-c4ccc5c(c4)OCO5)c2cc1OC)C(=O)OC3,AC50,[3],24.5 µM (active)
same,EC50,[4],8.65 µM (active)
same,IC50,Vero,21.1 µM (active)
same,EC50,[5],4.4 µM (active)
same,IC50,[6],1.83 µM (active)
same,AC50,[7],1.8 µM (active)
same,AC50,[8],1.38 µM (active)
same,EC50,[9],14.4 µM (active)
O=C(Nc1ccccc1)C1=C[C@H](c2ccccc2)C[C@H](OCCCCO)O1,EC50,[10],9.7 µM (active)
same,EC50,[11],11.6 µM (active)
same,EC50,[12],27.7 µM (active)
same,EC50,H4,22 µM (active)
CS/C(=C/[N+](=O)[O-])Nc1cccc2c1C(C)CC2(C)C (stereo not given),IC50,[13],44.8 µM (inactive)
same,AC50,[14],17.5 µM (active)
same,EC50,Protein RecA,5.21 µM (active)
